Data from patent US11268950B2, “Use of engineered renal tissues in assays” (Organovo, Inc., priority 2016, dated 2022).
Values joined by “and” are separate entries in the source; they are usually repeats but may differ in a detail not shown here. Equal values may be shown once. “Also recorded” adds a separate entry of the source. Blank lines part the entries; values can stand above or below the compound they belong to.

Legend:
SGLT2 = biological target: T1, SGLT2 (Homo sapiens, UniProt P31639); test: Glucose (2-DG) uptake colorimetric assay in 3D PT tissues; type: cell-based
T1 construct: SGLT2 protein expression was detected primarily at the apical surface of RPTEC on 3D PT tissues; endogenous in cells; host or cells: bioprinted 3D PT tissue: primary human RPTEC on an interstitium of primary human renal fibroblasts and HUVEC
T1 sequence (P31639 1-672): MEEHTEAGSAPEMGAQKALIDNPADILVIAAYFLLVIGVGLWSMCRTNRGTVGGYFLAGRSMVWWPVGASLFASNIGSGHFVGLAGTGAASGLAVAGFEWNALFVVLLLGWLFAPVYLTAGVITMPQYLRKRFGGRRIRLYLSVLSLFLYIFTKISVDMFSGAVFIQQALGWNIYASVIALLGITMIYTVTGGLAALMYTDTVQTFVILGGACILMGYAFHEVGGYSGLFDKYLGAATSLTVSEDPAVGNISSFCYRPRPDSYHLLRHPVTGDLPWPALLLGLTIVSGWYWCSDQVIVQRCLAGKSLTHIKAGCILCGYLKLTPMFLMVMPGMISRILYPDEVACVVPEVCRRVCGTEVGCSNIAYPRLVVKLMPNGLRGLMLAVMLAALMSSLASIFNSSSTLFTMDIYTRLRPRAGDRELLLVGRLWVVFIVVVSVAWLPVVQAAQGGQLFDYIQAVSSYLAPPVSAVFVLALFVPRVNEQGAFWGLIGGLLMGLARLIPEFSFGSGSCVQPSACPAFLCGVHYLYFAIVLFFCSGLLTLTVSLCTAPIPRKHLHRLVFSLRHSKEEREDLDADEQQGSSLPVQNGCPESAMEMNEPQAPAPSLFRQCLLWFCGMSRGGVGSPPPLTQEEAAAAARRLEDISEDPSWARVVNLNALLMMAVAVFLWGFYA
Description: Glucose uptake in 3D PT tissues was detected and quantified according to the manufacturer's protocol (Abeam, Cambridge, Mass.). Insulin-Transferrin-Selenium (Gibco, Carlsbad, Calif.) was used to stimulate glucose uptake and canagliflozin (Santa Cruz Biotech, Dallas, Tex.) was used to inhibit SGLT2 function. […] Tissues were then pretreated with 1X insulin or 500 μM canagliflozin for 20 minutes, followed by addition of 1 mM 2-deoxyglucose. Tissues were washed extensively with PBS and lysed in extraction buffer in Precellys® lysis tubes (Precellys, Rockville, Md.).

3D PT tissues [1] = settings: OCT2 inhibition by cimetidine
Description: 3D PT Novo View™ Tissues were fabricated as described (Nguyen et al., 2016). Briefly, cultured renal fibroblasts and HUVEC were combined in a 50:50 ratio and resuspended in NovoGel® Bio-Ink, and then bioprinted onto 0.4 μm Transwell® clear polyester membrane inserts in a 24-well plate (Coming Costar, Coming, NY) using a NovoGen Bioprinter® Instrument (Organovo Inc., San Diego, Calif.) with previously established protocols (Forgacs et al., 2012; Murphy et al., 2015; Nguyen et al., 2016). Following bioprinting, NovoView′ Tissues were cultured in NovoView™ Kidney Media (Organovo, San Diego, Calif.). On culture day 3, primary RPTEC cells were added to the tissues in a suspension of 1.25×10^6 cells/ml in RPTEC media. […]
Assessment of metabolic activity as a surrogate for tissue viability and health was performed by alamarBlue™ assay according to the manufacturer's protocol (Thermo Fisher, Carlsbad, Calif.). […] After incubation, the alamarBlue′ solution was removed and fluorescence was measured on a BMG Labtech POLARstar® Omega reader (Cary, N.C.) with an excitation filter of 560 nm and an emission filter of 590 nm. Graphed data represent the percent relative fluorescence units (RFU) compared to blank for metabolic activity over time, or the percent RFU compared to vehicle control for toxicity studies.

3D PT tissues [2] = test: PCNA staining, RPTEC proliferation in 3D PT tissues; type: cell-based, human; settings: daily for 7 days
Description: 3D PT were fixed overnight in 2% paraformaldehyde (Electron Microscopy Sciences, Hatfield, Pa.). Tissues were oriented for transverse sectioning by pre-embedding in HistoGel™ (Thermo Fisher, Carlsbad, Calif.) and were then dehydrated and infiltrated with paraffin by automated processing on a Tissue-Tek VIP® tissue processing system (Sakura Finetek USA, Torrance, Calif.). Tissues were sectioned at 5 μM on a Leica® Reichert-Jung® Histocut microtome (Leica Biosystems, Buffalo Grove, Ill.). Hematoxylin and eosin (H&E) or Gomori's trichrome (TCM) stains were generated using a Leica® Autostainer XL (Leica Biosystems, Buffalo Grove, Ill.) according to manufacturer's instructions. Immunohistochemistry was performed as previously described (King et al., 2013) using the primary antibodies in Table 1. Following overnight incubation with primary antibodies at 4° C., sections were stained with AlexaFluor®-conjugated secondary antibodies (Thermo Fisher, Carlsbad, Calif.) at 1:200 dilution. For P-gp and SGLT2 detection, tyramide signal amplification was performed according to the manufacturer's instructions (Thermo Fisher, Carlsbad, Calif.). Slides were counterstained and mounted with FluoroGel II with DAPI (Electron Microscopy Sciences, Hatfield, Pa.). H&E and TCM images were acquired on a Zeiss® Axioskop with Zeiss® Zen software (Zeiss Microscopy, Thornwood, NY). Immunofluorescent images were acquired on a Zeiss® Axio® Imager A2 with Zeiss® Zen software.

[3] = humans, Zhang and Zhou, 2012; cited from earlier work
3D PT tissues [4] = test: Passive permeability (Papp) of Lucifer yellow across 3D PT tissues; type: in vitro ADME, human; settings: for Papp: Lucifer yellow 250 μM, 1 h, individual tissues 1-6 and average
Description: Tissues were then dosed with 250 μM Lucifer yellow (Thermo Fisher, Carlsbad, Calif.) to the apical compartment and fresh assay buffer in the basolateral (receiver) compartment. Following incubation for 1 h at 37° C., samples were taken from both the apical and basolateral compartments. Fluorescence in each sample was measured on a BMG plate reader with an excitation filter of 490 nm and an emission filter of 540 nm (BMG Labtech, Cary, N.C.) and normalized to a standard curve for quantification. Papp was calculated with equation 1, where V represents the volume of Lucifer yellow solution, T is the duration of the incubation, D0 is the concentration of Lucifer yellow applied to the cells, and A is the growth area of the Transwell® insert. Papp=(V/A×D0))*(ΔD/ΔT) Equation 1: […]

3D PT tissues [5] = test: GGT activity of 3D PT tissues (epithelial function); type: cell-based, human; settings: 5 μM cisplatin, daily for 7 days
Description: GGT activity was measured according to the manufacturer's protocol (Sigma Aldrich, St. Louis, Mo.). Tissues were washed twice with DPBS and lysed in GGT assay buffer in a Precellys® lysis tube (Precellys, Rockville, Md.). Lysate was assessed for GGT activity by comparison to a standard curve integration of absorbance normalized for volume and duration of incubation period at 37° C. using GraphPad Prism® software (GraphPad, San Diego, Calif.). Data shown represent the average GGT activity in mIU/ml for analysis of GGT function over time, or percent relative to vehicle for toxicity studies.

3D PT tissues [6] = test: LDH release from 3D PT tissues; type: cell-based, human; settings: 5 μM cisplatin alone, treatment day 5 (peak)
Description: Lactate dehydrogenase (LDH) activity assay was performed according to the manufacturer's protocol (Abcam, Cambridge, Mass.). Conditioned media was collected from 3D PT tissues and further diluted in fresh media to ensure that the LDH activity of the sample was within the linear range of the assay. Samples were measured on a microplate reader (BMG Labtech, Cary, N.C.). LDH activity was determined by standard curve integration of absorbance normalized for volume and duration using GraphPad Prism® software (GraphPad, San Diego, Calif.). Data shown represent the fold change in LDH activity relative to vehicle control for each day of sampling.

3D PT tissues [7] = test: H&E histology of 3D PT tissues; settings: daily for 7 days; 5 μM cisplatin, 1 mM cimetidine
Description: 3D PT were fixed overnight in 2% paraformaldehyde (Electron Microscopy Sciences, Hatfield, Pa.). Tissues were oriented for transverse sectioning by pre-embedding in HistoGel™ (Thermo Fisher, Carlsbad, Calif.) and were then dehydrated and infiltrated with paraffin by automated processing on a Tissue-Tek VIP® tissue processing system (Sakura Finetek USA, Torrance, Calif.). Tissues were sectioned at 5 μM on a Leica® Reichert-Jung® Histocut microtome (Leica Biosystems, Buffalo Grove, Ill.). Hematoxylin and eosin (H&E) or Gomori's trichrome (TCM) stains were generated using a Leica® Autostainer XL (Leica Biosystems, Buffalo Grove, Ill.) according to manufacturer's instructions. Immunohistochemistry was performed as previously described (King et al., 2013) using the primary antibodies in Table 1. Following overnight incubation with primary antibodies at 4° C., sections were stained with AlexaFluor®-conjugated secondary antibodies (Thermo Fisher, Carlsbad, Calif.) at 1:200 dilution. For P-gp and SGLT2 detection, tyramide signal amplification was performed according to the manufacturer's instructions (Thermo Fisher, Carlsbad, Calif.). Slides were counterstained and mounted with FluoroGel II with DAPI (Electron Microscopy Sciences, Hatfield, Pa.). H&E and TCM images were acquired on a Zeiss® Axioskop with Zeiss® Zen software (Zeiss Microscopy, Thornwood, NY). […]

P-gp = biological target: T2, P-gp (Homo sapiens, UniProt P08183); test: Rhodamine 123 transport / P-gp efflux in 3D PT tissues; type: cell-based; settings: image quantification, 2 h, 5 μM zosuquidar
T2 construct: P-gp protein expression was detected at the apical surface of the RPTEC cells in the 3D PT model; endogenous in cells; host or cells: bioprinted 3D PT tissue: primary human RPTEC on an interstitium of primary human renal fibroblasts and HUVEC
T2 sequence (P08183 whole entry): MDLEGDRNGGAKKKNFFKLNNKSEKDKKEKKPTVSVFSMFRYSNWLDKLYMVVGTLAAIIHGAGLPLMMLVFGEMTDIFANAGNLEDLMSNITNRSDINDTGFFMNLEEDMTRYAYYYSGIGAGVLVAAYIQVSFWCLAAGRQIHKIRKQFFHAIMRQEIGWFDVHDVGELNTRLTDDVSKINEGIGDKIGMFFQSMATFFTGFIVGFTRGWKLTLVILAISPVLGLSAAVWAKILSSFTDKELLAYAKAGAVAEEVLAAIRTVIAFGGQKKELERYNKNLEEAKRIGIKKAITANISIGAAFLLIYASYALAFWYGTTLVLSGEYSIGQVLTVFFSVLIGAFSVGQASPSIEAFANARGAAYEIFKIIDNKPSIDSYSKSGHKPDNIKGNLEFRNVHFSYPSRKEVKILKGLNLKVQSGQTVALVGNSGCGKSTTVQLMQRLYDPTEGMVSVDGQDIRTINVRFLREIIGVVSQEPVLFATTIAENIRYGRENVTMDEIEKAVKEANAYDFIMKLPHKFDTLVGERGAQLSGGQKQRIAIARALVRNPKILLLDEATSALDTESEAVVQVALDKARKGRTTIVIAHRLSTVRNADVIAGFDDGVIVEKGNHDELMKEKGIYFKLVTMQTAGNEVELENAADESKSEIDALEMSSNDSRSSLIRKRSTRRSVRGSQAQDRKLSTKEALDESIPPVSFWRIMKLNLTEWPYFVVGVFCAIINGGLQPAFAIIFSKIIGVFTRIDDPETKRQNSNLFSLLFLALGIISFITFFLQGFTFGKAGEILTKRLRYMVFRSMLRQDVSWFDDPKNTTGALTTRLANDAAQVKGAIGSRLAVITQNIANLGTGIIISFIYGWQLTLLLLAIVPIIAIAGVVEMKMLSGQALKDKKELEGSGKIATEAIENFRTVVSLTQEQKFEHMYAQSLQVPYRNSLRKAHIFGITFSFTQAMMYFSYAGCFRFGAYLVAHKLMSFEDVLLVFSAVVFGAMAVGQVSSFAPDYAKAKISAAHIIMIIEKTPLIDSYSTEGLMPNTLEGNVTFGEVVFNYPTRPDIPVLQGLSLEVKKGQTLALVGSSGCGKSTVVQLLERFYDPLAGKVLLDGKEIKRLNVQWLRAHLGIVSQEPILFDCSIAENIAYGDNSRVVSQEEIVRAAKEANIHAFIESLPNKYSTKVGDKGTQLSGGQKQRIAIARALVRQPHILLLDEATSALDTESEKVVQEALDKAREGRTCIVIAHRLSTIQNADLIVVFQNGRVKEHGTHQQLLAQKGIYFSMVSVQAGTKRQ
Description: Both apical and basolateral sides of tissues were then pre-incubated for 20 min at 37° C. in assay buffer in the presence or absence of 5 μM zosuquidar (Sigma Aldrich, St. Louis, Mo.). Following pre-treatment, tissues were dosed on the basolateral side with 1 μM rhodamine 123 (Molecular Probes, Eugene, Oreg.) with or without 5 μM zosuquidar for 2h at 37° C. After incubation, the tissues were washed with cold assay buffer, fixed with 2% PFA, and cryosectioned. Images were captured at the same exposure time across all conditions. Fluorescence intensity, corrected for background and relative area, was calculated in Image J (National Institutes of Health, Bethesda, Md.) and graphed as fold change relative to control using GraphPad Prism® software (GraphPad, San Diego).

ACE = biological target: T3, ACE (Homo sapiens, UniProt P12821); test: ACE function: conversion of angiotensin I to angiotensin II (ELISA); type: cell-based; settings: after 5 ng/ml human angiotensin I for 24 h
T3 construct: ACE protein was detected in both conditioned media and tissue lysates, with higher detection in the tissue lysates; endogenous in cells; host or cells: bioprinted 3D PT tissue: primary human RPTEC on an interstitium of primary human renal fibroblasts and HUVEC
T3 sequence (P12821 30-1306): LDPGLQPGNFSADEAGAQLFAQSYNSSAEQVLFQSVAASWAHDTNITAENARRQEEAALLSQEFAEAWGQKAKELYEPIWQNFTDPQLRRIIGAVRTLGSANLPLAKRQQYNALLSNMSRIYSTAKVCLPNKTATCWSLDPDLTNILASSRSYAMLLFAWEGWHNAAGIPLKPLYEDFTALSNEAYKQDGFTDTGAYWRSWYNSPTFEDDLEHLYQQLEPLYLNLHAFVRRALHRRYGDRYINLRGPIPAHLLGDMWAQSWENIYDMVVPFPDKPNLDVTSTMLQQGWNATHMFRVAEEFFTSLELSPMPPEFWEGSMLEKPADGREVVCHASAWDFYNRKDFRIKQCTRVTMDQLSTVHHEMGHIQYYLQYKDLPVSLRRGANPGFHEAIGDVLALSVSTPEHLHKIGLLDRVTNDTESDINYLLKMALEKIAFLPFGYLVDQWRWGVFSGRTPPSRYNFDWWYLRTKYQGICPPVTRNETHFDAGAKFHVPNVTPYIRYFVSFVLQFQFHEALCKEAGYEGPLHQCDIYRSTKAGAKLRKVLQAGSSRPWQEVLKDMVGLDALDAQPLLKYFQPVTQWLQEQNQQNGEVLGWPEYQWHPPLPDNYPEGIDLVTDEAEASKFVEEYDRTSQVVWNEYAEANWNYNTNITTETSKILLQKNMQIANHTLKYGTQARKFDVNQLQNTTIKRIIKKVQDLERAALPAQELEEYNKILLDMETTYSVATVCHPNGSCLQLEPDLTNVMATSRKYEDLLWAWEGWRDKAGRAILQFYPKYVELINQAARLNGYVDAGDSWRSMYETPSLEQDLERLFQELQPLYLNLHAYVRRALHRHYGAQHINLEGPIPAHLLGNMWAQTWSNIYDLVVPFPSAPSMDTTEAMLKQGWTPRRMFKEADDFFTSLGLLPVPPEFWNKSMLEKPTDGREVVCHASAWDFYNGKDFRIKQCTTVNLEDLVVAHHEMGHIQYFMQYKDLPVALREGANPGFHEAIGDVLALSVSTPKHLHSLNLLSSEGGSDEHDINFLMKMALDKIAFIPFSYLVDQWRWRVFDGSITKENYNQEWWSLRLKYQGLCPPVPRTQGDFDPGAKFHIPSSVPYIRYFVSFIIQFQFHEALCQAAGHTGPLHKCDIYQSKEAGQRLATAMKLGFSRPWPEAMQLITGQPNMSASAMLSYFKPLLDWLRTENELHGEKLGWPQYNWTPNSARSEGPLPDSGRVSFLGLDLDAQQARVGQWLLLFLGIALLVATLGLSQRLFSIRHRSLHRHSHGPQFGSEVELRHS
Description: To evaluate ACE enzyme function, 3D PT tissues were treated for 24 h with 5 ng/ml human angiotensin I (Abeam, Cambridge, Mass.) and angiotensin II was then detected using a competitive ELISA kit from Sigma per the manufacturer's instructions (Sigma-Aldrich, St. Louis, Mo.). Plates were read at 450 nm within 30 minutes of addition of the stop solution (BMG Labtech, Cary, N.C.). The concentration of angiotensin II in the test samples was determined by comparison to the standard curve using GraphPad Prism® software (GraphPad, San Diego, Calif.).

[8] = system: ExVive™ Human Kidney Tissue; test: Fibrosis-related gene expression by semi-quantitative RTPCR; type: cell-based; settings: 0.37-10 ng/ml daily for seven days
Description: Fibrosis-related gene expression was also assessed on this ExVive™ Human Kidney Tissue treated with TGFβ. […] Data shown is the average of 3 tissue samples per condition. *p<0.0001 for each condition compared to vehicle control.

[9] = system: ExVive™ Human Kidney Tissue; test: Resazurin conversion in ExVive Human Kidney Tissue; type: cell-based; settings: 0.37-10 ng/ml daily for seven days
Description: (§1) As described in this present disclosure, the ExVive™ Human Kidney Tissue (Organovo, San Diego, Calif.) is a fully human three-dimensional (3D), bioprinted tissue comprised of an apical layer of polarized primary renal proximal tubule epithelial cells (RPTECs) supported by a collagen IV-rich tubulointerstitial interface of primary renal fibroblasts and endothelial cells. As renal fibrosis is a common downstream effect of drug-induced injury, the ExVive™ Human Kidney Tissue was treated with Transforming Growth Factor R (TGFI3 or TGFbeta), a key player of the fibrotic response, for purposes of evaluating tubulointerstitial fibrosis. Thus, to induce renal fibrosis, a healthy ExVive™ Human Kidney Tissue was treated with TGFI3, a key player of the fibrotic response. In particular, each healthy ExVive™ Human Kidney Tissue was dosed daily for seven days with vehicle control, 0.37 ng/ml TGFβ, 1.1ng/m1 TGFβ, 3.3 ng/ml TGFβ, or 10 ng/m1 TGFβ, respectively. Subsequently, after the ExVive™ Human Kidney Tissue was treated with TGFβ, an assessment of the viability and epithelial cell functions of this ExVive™ Human Kidney Tissue was conducted. […] Data shown is the average of 3 tissue samples per condition and is represented as the fold change relative to the vehicle control. *p<0.05; ***p<0.001 for each condition compared to vehicle control.

[10] = system: ExVive™ Human Kidney Tissue; test: ECM deposition (Gomori's Trichrome, Sirius red) in ExVive tissue; type: cell-based; settings: 0.37-10 ng/ml daily for seven days
Description: Data represents the average of 4 technical replicates per tissue, 3 tissues per condition and is represented as the fold change relative to the vehicle control following normalization to total protein content as measured by Fast Green staining. *p<0.05 for each condition compared to vehicle control.

[11] = system: ExVive™ Human Kidney Tissue; test: GGT activity in ExVive Human Kidney Tissue; type: cell-based; settings: 0.37-10 ng/ml daily for seven days
Description: as §1

Compound: CN/C(=N/CCSCc1nc[nH]c1C)NC#N [cimetidine]
protection against cisplatin-induced loss of viability and epithelial function (3D PT tissues [1]): successfully protected
RPTEC proliferation (PCNA) (3D PT tissues [2]): low levels of RPTEC proliferation
urinary cystatin C following cisplatin administration [3]: decreased urinary cystatin C

Compound: N.N.[Cl][Pt][Cl] [cisplatin]
reduction in GGT activity (3D PT tissues [5]): ~50%
LDH release, increase over vehicle controls (3D PT tissues [6]): 3 fold
RPTEC proliferation (PCNA) (3D PT tissues [2]): dose-dependent proliferative response; also recorded: dose-dependent increase in proliferating RPTEC
epithelial morphology (H&E) (3D PT tissues [7]): more squamous morphology and loss of nuclei

Compound: insulin: Insulin-Transferrin-Selenium (Gibco) used to stimulate glucose uptake
increase in intracellular 2-DG (SGLT2; tissues in normal tissue media): 4 fold
increase in glucose uptake (SGLT2; tissues starved overnight): 8 fold

Compound: TGFβ
fibrosis-related gene expression (COL1A1, CTGF, FAP, PDGFRB) [8]: induction of the fibrotic markers; also recorded: increase in the expression of fibrosis-related genes
Resazurin conversion (overall tissue metabolic activity) [9]: No statistically significant differences
tissue thickness and extracellular matrix deposition [10]: induces tissue thickening and increased extracellular matrix deposition; also recorded: extensive ECM deposition in the interstitium
GGT activity (epithelial cell function) [11]: Statistically significant reduction in RPTEC function was detected with higher doses; also recorded: loss of epithelial cell function at the highest dose

Further lines, with some results ahead:

decrease of insulin-induced intracellular 2-DG (SGLT2; normal tissue media, co-administration with insulin, 500 μM canagliflozin): 50%
Compound: Cc1ccc([C@@H]2O[C@H](CO)[C@@H](O)[C@H](O)[C@H]2O)cc1Cc1ccc(-c2ccc(F)cc2)s1 [canagliflozin]
effect on insulin-induced glucose uptake (SGLT2; tissues starved overnight, 500 μM canagliflozin): significantly reduced by canagliflozin to levels indistinguishable from the control tissues

Papp (3D PT tissues [4]; mean): 2.97 ± 0.17 ×10^−6 cm/s
average Papp (3D PT tissues [4]; Lucifer yellow, 3D PT tissues): 2.97 ×10⁻⁶ cm/s
Compound: Lucifer yellow
Papp (3D PT tissues [4]): 2.93e-06 cm/s and 2.63e-06 cm/s and 2.73e-06 cm/s and 2.66e-06 cm/s and 3.74e-06 cm/s and 3.11e-06 cm/s

increase in fluorescence over control tissues (P-gp): 4 fold
Compound: rhodamine 123 [R123]

angiotensin II detected (ACE): 0.4 pg/mL
Compound: angiotensin I: human angiotensin I (Abcam), ACE substrate (DRVYIHPFHL; Angiotensin-1; UniProt P01019 25-34, looked up)
